Test results as given in PubChem BioAssay (NCI).
Values joined by “and” are separate entries in the source; they are usually repeats but may differ in a detail not shown here. Equal entries are not always repeated.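 Briefly, cells in 96-well plates were exposed to five compound concentrations for 48 h, and endpoints were estimated by linear interpolation. GI50 marks 50% less growth. TGI denotes the concentration required for complete inhibition of growth.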

Key:
Test in all cases: NCI anticancer screen, dose series, 48 h
KM12 colon = tested on: KM12 colon
NCI-H460 lung = tested on: NCI-H460 lung
OVCAR-4 ovarian = tested on: OVCAR-4 ovarian
RPMI-8226 leukemia = tested on: RPMI-8226 leukemia
SF-268 CNS = tested on: SF-268 CNS
SK-MEL-2 melanoma = tested on: SK-MEL-2 melanoma
SK-MEL-5 melanoma = tested on: SK-MEL-5 melanoma
SW-620 colon = tested on: SW-620 colon
UO-31 renal = tested on: UO-31 renal
MDA-MB-435 = tested on: MDA-MB-435

SMILES | TGI (KM12 colon) | TGI (NCI-H460 lung) | TGI (OVCAR-4 ovarian) [µM] | TGI (RPMI-8226 leukemia) [µM] | TGI (SF-268 CNS) | TGI (SK-MEL-2 melanoma) | TGI (SK-MEL-5 melanoma) | TGI (SW-620 colon) | TGI (UO-31 renal) [µM] | GI50 (KM12 colon) | GI50 (MDA-MB-435) [µM] | TGI (MDA-MB-435) [µM] | GI50 (RPMI-8226 leukemia) | GI50 (NCI-H460 lung) [µM] | GI50 (OVCAR-4 ovarian) [µM] | GI50 (SF-268 CNS) [µM] | GI50 (SK-MEL-2 melanoma) [µM] | GI50 (SK-MEL-5 melanoma) [µM] | GI50 (SW-620 colon) [µM] | GI50 (UO-31 renal) [µM]
CCOC(=O)C1=C(C)N(NC(=O)c2ccccc2)C2(O)CCCC12C(=O)OCC (stereo not drawn) | > 100 µM | > 100 µM | > 100 | > 100 | > 100 µM | > 100 µM | > 100 µM | > 100 µM | > 100 | – | – | – | – | – | – | – | – | – | – | –
Nc1ccn([C@@H]2C=C(CO)[C@@H](O)[C@H]2O)c(=O)n1 | 500 µM and > 625 µM | 2.27 µM and 9.48 µM and 8.82 µM | – | – | 500 µM and > 625 µM | 346 µM and 301 µM | 406 µM and 379 µM | 303 µM and > 625 µM | – | 0.16 µM and 0.0625 µM | 0.0377 | 500 | 0.0128 µM and 0.0635 µM and 0.126 µM | – | – | – | – | – | – | –
COc1cc(-c2nc3ccccc3s2)ccc1OCc1nc2n(n1)S(=O)(=O)c1ccccc1N2C | > 100 µM | > 100 µM | > 100 | – | > 100 µM | > 100 µM | > 100 µM | > 100 µM | > 100 | > 100 µM | > 100 | > 100 | – | > 100 | > 100 | > 100 | > 100 | > 100 | > 100 | > 100
C/C(=C\c1ccn(-c2ccc(N)cc2)n1)[C@@H]1C[C@@H]2O[C@]2(C)CCC[C@H](C)[C@H](O)[C@@H](C)C(=O)C(C)(C)[C@@H](O)CC(=O)O1 | > 50 µM | > 50 µM | > 50 | > 50 | > 50 µM | > 50 µM | > 50 µM | > 50 µM | > 50 | 0.0196 µM | – | – | 0.0214 µM | 0.0202 | 0.401 | 0.118 | 0.0758 | 0.0308 | 0.0248 | 0.251
CSC(=S)NNC(=O)c1ccncc1 | > 100 µM | > 100 µM | – | 47.8 | 63.3 µM | 33.9 µM | 62.6 µM | 23.6 µM | 31.6 | – | – | – | – | – | – | – | – | – | – | –
O=C1c2ccccc2C(=O)c2nc(-c3ccccc3)c(-c3ccccc3)nc21 | > 100 µM | > 100 µM | > 66.9 | > 100 | > 100 µM | > 100 µM | 8.2 µM | > 100 µM | > 100 | – | – | – | – | – | – | – | – | – | – | –
COC(=O)C1C(=O)O[C@@H](c2ccc(OC)cc2OC)C1C(=O)OC (stereo partly drawn) | > 100 µM | > 100 µM | > 100 | > 100 | > 100 µM | – | > 100 µM | > 100 µM | > 100 | – | – | – | – | – | – | – | – | – | – | –
O=C(O)/C(Cl)=C(\Cl)C(=O)Nc1ccccc1 | > 100 µM | > 100 µM | > 100 | > 100 | > 100 µM | > 100 µM | > 100 µM | > 100 µM | > 100 | – | – | – | – | – | – | – | – | – | – | –
CC1C(=O)N(C)C2(CO)C(=O)O[C@H](C)C12O (stereo partly drawn) | > 100 µM | – | > 100 | > 100 | > 100 µM | > 100 µM | > 100 µM | – | > 100 | – | – | – | – | – | – | – | – | – | – | –
CCC[CH2][Sn]([CH2]CCC)([S]C1=NCCS1)[S]C1=NCCS1 | 2.28 µM | 3.26 µM | 2.24 | 0.461 | 0.908 µM | 0.566 µM | 1.76 µM | 0.441 µM | 2.51 | 1.02 µM | – | – | 0.101 µM | 1.52 | 0.964 | 0.254 | 0.194 | 0.452 | 0.145 | 1.13
CC1OC(O)CC(OC(=O)c2ccccc2)C1OC(=O)c1ccccc1 (stereo not drawn) | > 100 µM | > 100 µM | 28.8 | 31.8 | 30 µM | – | 31.4 µM | 26.7 µM | – | – | – | – | – | – | – | – | – | – | – | –
Cc1ccc(S(=O)(=O)N/N=C(\C(=O)Nc2cccc([N+](=O)[O-])c2)c2nc3ccc([N+](=O)[O-])cc3[nH]c2=O)cc1 | > 100 µM | > 100 µM | > 100 | > 100 | > 100 µM | > 100 µM | > 100 µM | > 100 µM | > 100 | – | – | – | – | – | – | – | – | – | – | –
O=C(C=Nc1ccccc1C(=O)[O-])c1cccs1.O=C(C=Nc1ccccc1C(=O)[O-])c1cccs1.[Cu+2] | > 100 µM | > 100 µM | – | – | > 100 µM | > 100 µM | – | > 100 µM | > 100 | – | – | – | – | – | – | – | – | – | – | –
CCOC(=O)c1c(Cl)c2c(n1Cc1cc(OC)cc(OC)c1)-c1oncc1CCC2 | > 100 µM | > 100 µM | > 85.3 | > 100 | > 100 µM | 4.07 µM | > 100 µM | > 100 µM | > 100 | 0.346 µM | – | – | 0.383 µM | 0.375 | 1.91 | 1.65 | 0.226 | 0.451 | 0.344 | 1.04
CCCCCCCCCC(=O)OCC1OC(n2cc(F)c(=O)[nH]c2=O)C(N)C(OC(=O)CCCCCCCCC)C1O (stereo not drawn) | 41.2 µM | 40.5 µM | 31 | 48.4 | 40.2 µM | 29.6 µM | 37.4 µM | 31.8 µM | 54.9 | – | – | – | – | – | – | – | – | – | – | –
CCC(=C(c1ccc(OCc2ccccc2)cc1)c1ccc(OCc2ccccc2)cc1)c1ccc(OC)cc1 | > 100 µM | > 100 µM | > 100 | > 100 | > 100 µM | > 100 µM | > 100 µM | > 100 µM | > 100 | – | – | – | – | – | – | – | – | – | – | –
O=C(CC1(O)C(=O)Nc2c(Cl)cc(Cl)cc21)c1ccc2ccccc2c1 (stereo not drawn) | 18.8 µM | 18.1 µM | 26.4 | 29.8 | 31.8 µM | 16.3 µM | 18.8 µM | 14.7 µM | 24.5 | – | – | – | – | – | – | – | – | – | – | –
C=CCN(N=O)C(=O)N(CCC)CCCCC(NC(C)=O)C(=O)NCc1ccccc1 (stereo not drawn) | > 100 µM | > 100 µM | > 100 | > 100 | > 100 µM | > 100 µM | > 100 µM | > 100 µM | > 100 | – | – | – | – | – | – | – | – | – | – | –
CCN(CC)CCOc1cc2c(C(=O)OC)c(C)oc2cc1C(C)=O | 21.1 µM | 91.8 µM | – | 7.39 | 32.6 µM | > 100 µM | 19 µM | 23.9 µM | > 100 | 4.45 µM | 16.1 | 33.9 | 2.76 µM | 29.9 | – | 13.6 | 33.3 | 6.62 | 7.56 | 22.5
